PubChem BioAssay (NCI)
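Exposure lasted 48 hours, with cells grown in 96-well plates and compounds tested at five concentrations. GI50 = concentration required for 50% inhibition of growth. At the TGI there is no net growth.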

How the values were obtained:
Assay in all cases: NCI tumour cell line growth inhibition, 48 h
786-0 renal = tested on: 786-0 renal
A498 renal = tested on: A498 renal
A549 NSCLC = tested on: A549 NSCLC
ACHN renal = tested on: ACHN renal
BT-549 breast = tested on: BT-549 breast
CAKI-1 renal = tested on: CAKI-1 renal
CCRF-CEM leukemia = tested on: CCRF-CEM leukemia
COLO 205 colon = tested on: COLO 205 colon
DU-145 prostate = tested on: DU-145 prostate
EKVX NSCLC = tested on: EKVX NSCLC
HCC-2998 colon = tested on: HCC-2998 colon
HCT-15 colon = tested on: HCT-15 colon
HL-60(TB) leukemia = tested on: HL-60(TB) leukemia
HOP-62 NSCLC = tested on: HOP-62 NSCLC
HOP-92 NSCLC = tested on: HOP-92 NSCLC
HS 578T breast = tested on: HS 578T breast
HT29 colon = tested on: HT29 colon
IGROV1 ovarian = tested on: IGROV1 ovarian
KM12 colon = tested on: KM12 colon
LOX IMVI melanoma = tested on: LOX IMVI melanoma
MALME-3M melanoma = tested on: MALME-3M melanoma
MCF7 breast = tested on: MCF7 breast
MDA-MB-231 breast = tested on: MDA-MB-231 breast
MDA-MB-435 = tested on: MDA-MB-435
MOLT-4 leukemia = tested on: MOLT-4 leukemia
NCI-H226 lung = tested on: NCI-H226 lung
NCI-H23 lung = tested on: NCI-H23 lung
NCI-H460 lung = tested on: NCI-H460 lung
NCI-H522 lung = tested on: NCI-H522 lung
NCI/ADR-RES ovarian = tested on: NCI/ADR-RES ovarian
OVCAR-3 ovarian = tested on: OVCAR-3 ovarian
OVCAR-4 ovarian = tested on: OVCAR-4 ovarian
OVCAR-5 ovarian = tested on: OVCAR-5 ovarian
OVCAR-8 ovarian = tested on: OVCAR-8 ovarian
PC-3 prostate = tested on: PC-3 prostate
RPMI-8226 leukemia = tested on: RPMI-8226 leukemia
RXF 393 renal = tested on: RXF 393 renal
SF-268 CNS = tested on: SF-268 CNS
SF-295 CNS = tested on: SF-295 CNS
SF-539 CNS = tested on: SF-539 CNS
SK-MEL-2 melanoma = tested on: SK-MEL-2 melanoma
SK-MEL-28 melanoma = tested on: SK-MEL-28 melanoma
SK-MEL-5 melanoma = tested on: SK-MEL-5 melanoma
SK-OV-3 ovarian = tested on: SK-OV-3 ovarian
SN12C renal = tested on: SN12C renal
SNB-19 CNS = tested on: SNB-19 CNS
SNB-75 CNS = tested on: SNB-75 CNS
SW-620 colon = tested on: SW-620 colon
T-47D breast = tested on: T-47D breast
TK-10 renal = tested on: TK-10 renal
U251 CNS = tested on: U251 CNS
UACC-257 melanoma = tested on: UACC-257 melanoma
UACC-62 melanoma = tested on: UACC-62 melanoma
UO-31 renal = tested on: UO-31 renal

## CCCN1C/C(=C\c2ccc(O)c(OC)c2)C(=O)/C(=C/c2ccc(O)c(OC)c2)C1
786-0 renal
  GI50: > 100 µM
  TGI: > 100 µM
A498 renal
  GI50: > 100 µM
  TGI: > 100 µM
A549 NSCLC
  GI50: > 100 µM
  TGI: > 100 µM
ACHN renal
  GI50: > 100 µM
  TGI: > 100 µM
BT-549 breast
  GI50: > 100 µM
  TGI: > 100 µM
CAKI-1 renal
  GI50: > 100 µM
  TGI: > 100 µM
CCRF-CEM leukemia
  GI50: > 100 µM
  TGI: > 100 µM
COLO 205 colon
  GI50: > 100 µM
  TGI: > 100 µM
DU-145 prostate
  GI50: > 100 µM
  TGI: > 100 µM
EKVX NSCLC
  GI50: > 100 µM
  TGI: > 100 µM
HCC-2998 colon
  GI50: > 100 µM
  TGI: > 100 µM
HCT-15 colon
  GI50: > 100 µM
  TGI: > 100 µM
HL-60(TB) leukemia
  GI50: > 100 µM
  TGI: > 100 µM
HOP-62 NSCLC
  GI50: > 100 µM
  TGI: > 100 µM
HOP-92 NSCLC
  GI50: > 100 µM
  TGI: > 100 µM
HS 578T breast
  GI50: > 100 µM
  TGI: > 100 µM
HT29 colon
  GI50: > 100 µM
  TGI: > 100 µM
IGROV1 ovarian
  GI50: > 100 µM
  TGI: > 100 µM
KM12 colon
  GI50: > 100 µM
  TGI: > 100 µM
LOX IMVI melanoma
  GI50: > 100 µM
  TGI: > 100 µM
MALME-3M melanoma
  GI50: > 100 µM
  TGI: > 100 µM
MCF7 breast
  GI50: > 100 µM
  TGI: > 100 µM
MDA-MB-231 breast
  GI50: > 100 µM
  TGI: > 100 µM
MDA-MB-435
  GI50: > 100 µM
  TGI: > 100 µM
MOLT-4 leukemia
  GI50: > 100 µM
  TGI: > 100 µM
NCI-H226 lung
  GI50: > 100 µM
  TGI: > 100 µM
NCI-H23 lung
  GI50: > 100 µM
  TGI: > 100 µM
NCI-H460 lung
  GI50: > 100 µM
  TGI: > 100 µM
NCI-H522 lung
  GI50: > 100 µM
  TGI: > 100 µM
NCI/ADR-RES ovarian
  GI50: > 100 µM
  TGI: > 100 µM
OVCAR-3 ovarian
  GI50: > 100 µM
  TGI: > 100 µM
OVCAR-4 ovarian
  GI50: > 100 µM
  TGI: > 100 µM
OVCAR-5 ovarian
  GI50: > 100 µM
  TGI: > 100 µM
OVCAR-8 ovarian
  GI50: > 100 µM
  TGI: > 100 µM
PC-3 prostate
  GI50: > 100 µM
  TGI: > 100 µM
RPMI-8226 leukemia
  GI50: > 100 µM
  TGI: > 100 µM
RXF 393 renal
  GI50: > 100 µM
  TGI: > 100 µM
SF-268 CNS
  GI50: > 100 µM
  TGI: > 100 µM
SF-295 CNS
  GI50: > 100 µM
  TGI: > 100 µM
SF-539 CNS
  GI50: > 100 µM
  TGI: > 100 µM
SK-MEL-2 melanoma
  GI50: > 100 µM
  TGI: > 100 µM
SK-MEL-28 melanoma
  GI50: > 100 µM
  TGI: > 100 µM
SK-MEL-5 melanoma
  GI50: > 100 µM
  TGI: > 100 µM
SK-OV-3 ovarian
  GI50: > 100 µM
  TGI: > 100 µM
SN12C renal
  GI50: > 100 µM
  TGI: > 100 µM
SNB-19 CNS
  GI50: > 100 µM
  TGI: > 100 µM
SNB-75 CNS
  GI50: > 100 µM
  TGI: > 100 µM
SW-620 colon
  GI50: > 100 µM
  TGI: > 100 µM
T-47D breast
  GI50: > 100 µM
  TGI: > 100 µM
TK-10 renal
  GI50: > 100 µM
  TGI: > 100 µM
U251 CNS
  GI50: > 100 µM
  TGI: > 100 µM
UACC-257 melanoma
  GI50: > 100 µM
  TGI: > 100 µM
UACC-62 melanoma
  GI50: > 100 µM
  TGI: > 100 µM
UO-31 renal
  GI50: > 100 µM
  TGI: > 100 µM
